# From US10227347B2, “Purinyl-N-hydroxyl pyrimidine formamide derivative, preparation methods and uses thereof” (Guizhou Bailing Group Pharmaceutical CO., LTD., priority 2015, dated 2019)
# What was measured:
# [1] = system: acetylated Ac-α-tubulin in A2780s cells; assay: Induction of α-tubulin acetylation in A2780s cells (cytoblot); format: cell-based; conditions: Homo sapiens, 6 h treatment, read-out: Ac-Tub EC50
# Protocol: Specific operation: After the treatment, washing each well once with 50-100 μl of cold TBS buffer [with the composition as 20 mM Tris (trismetyl aminomethane), pH7.5] and fixing it with 100 μL of 4% pre-cooled paraformaldehyde at 4° C. for 1 h; after paraformaldehyde is washed off, adding 50 μL of pre-cooled methyl alcohol in each well and evenly spreading at 4° C. for 5 min; after methyl alcohol is washed off, washing it once with the TBS buffer containing 3% skim milk powder and adding 50 μL of antibody fluid, oscillating it slightly at 4° C. and incubating overnight. For determination of Ac—H3, the antibody fluid is prepared by diluting Ac—H3 antibody and horseradish peroxide coupled secondary antibody to a same system with the TBS buffer containing 3% skim milk powder (Ac—H3 antibody is purchased from Santa Cruz Company and diluted at a ratio of 1:100; horseradish peroxide coupled secondary antibody is purchased from Jackson Company and diluted at a ratio of 1:2000); for determination of acetylated Ac-α-tubulin, the antibody fluid is prepared by diluting Ac-α-tubulin antibody and horseradish peroxide coupled secondary antibody to a same system with the TBS buffer containing 3% skim milk powder (Ac-α-tubulin antibody is purchased from Santa Cruz Company and diluted at a ratio of 1:100; horseradish peroxide coupled secondary antibody is purchased from Jackson Company and diluted at a ratio of 1:2000).
# Calculating the value of IC50 as per the formula: Y=background data+(top data−background data)/(1+10^((Log EC50−X)*rate of curve)) Where, Y refers to the activating rate (%) and X refers to the compound concentration.
# [2] = system: MM1S cells (multiple myeloma); assay: Proliferation inhibition, MM1S (cck-8); format: cell-based; conditions: Homo sapiens, MM1.S; 96 h incubation
# From the text: Calculating the value of IC50 as per the formula: Y=background data+(top data−background data)/(1+10^((Log IC50−X)*rate of curve)). Where, Y refers to the inhibition ratio (%) and X refers to the compound concentration.
# HDAC5 = biological target: T1, HDAC5 (Homo sapiens, UniProt Q9UQL6); assay: HDAC5 enzyme inhibition (Lys-Ac-AMC); format: biochemical; conditions: Table 4, graded
# T1 construct: purchased BPS Bioscience 50005
# Protocol: (§1) Determining the inhibition capability of HDAC through the substrate method of fluorophore coupled acetylized peptide fragment (Lys-Ac-AMC). HDAC2-11 proteins of subtypes are purchased from BPS Bioscience Company with the Art. […] The reaction buffer system is a modified Tris buffer (pH7.0). The small molecule compounds are prepared and dissolved with 100% DMSO. […] Adding the compound into the reaction wells of the 384 well plate at the designed concentration, then adding 15 μL HDAC enzyme solution into the reaction wells (adding 15 μL blank buffer into the control well 0) for incubation under ambient temperature for 15 min; then adding 10 μL substrate solution to start reaction.
# (§2) Analyzing the result data with the software GraphPad Prism and calculating the value of IC50 as per the formula: Y=background data+(top data−background data)/(1+10^((Log IC50−X)*rate of curve)). Where, Y refers to the inhibition ratio (%) and X refers to the compound concentration.
# HDAC6 = biological target: T2, HDAC6 (Homo sapiens, UniProt Q9UBN7); assay: HDAC6 enzyme inhibition (Lys-Ac-AMC); format: biochemical; conditions: Table 4, graded
# T2 construct: purchased BPS Bioscience 50006
# T2 sequence (Q9UBN7 1-1215): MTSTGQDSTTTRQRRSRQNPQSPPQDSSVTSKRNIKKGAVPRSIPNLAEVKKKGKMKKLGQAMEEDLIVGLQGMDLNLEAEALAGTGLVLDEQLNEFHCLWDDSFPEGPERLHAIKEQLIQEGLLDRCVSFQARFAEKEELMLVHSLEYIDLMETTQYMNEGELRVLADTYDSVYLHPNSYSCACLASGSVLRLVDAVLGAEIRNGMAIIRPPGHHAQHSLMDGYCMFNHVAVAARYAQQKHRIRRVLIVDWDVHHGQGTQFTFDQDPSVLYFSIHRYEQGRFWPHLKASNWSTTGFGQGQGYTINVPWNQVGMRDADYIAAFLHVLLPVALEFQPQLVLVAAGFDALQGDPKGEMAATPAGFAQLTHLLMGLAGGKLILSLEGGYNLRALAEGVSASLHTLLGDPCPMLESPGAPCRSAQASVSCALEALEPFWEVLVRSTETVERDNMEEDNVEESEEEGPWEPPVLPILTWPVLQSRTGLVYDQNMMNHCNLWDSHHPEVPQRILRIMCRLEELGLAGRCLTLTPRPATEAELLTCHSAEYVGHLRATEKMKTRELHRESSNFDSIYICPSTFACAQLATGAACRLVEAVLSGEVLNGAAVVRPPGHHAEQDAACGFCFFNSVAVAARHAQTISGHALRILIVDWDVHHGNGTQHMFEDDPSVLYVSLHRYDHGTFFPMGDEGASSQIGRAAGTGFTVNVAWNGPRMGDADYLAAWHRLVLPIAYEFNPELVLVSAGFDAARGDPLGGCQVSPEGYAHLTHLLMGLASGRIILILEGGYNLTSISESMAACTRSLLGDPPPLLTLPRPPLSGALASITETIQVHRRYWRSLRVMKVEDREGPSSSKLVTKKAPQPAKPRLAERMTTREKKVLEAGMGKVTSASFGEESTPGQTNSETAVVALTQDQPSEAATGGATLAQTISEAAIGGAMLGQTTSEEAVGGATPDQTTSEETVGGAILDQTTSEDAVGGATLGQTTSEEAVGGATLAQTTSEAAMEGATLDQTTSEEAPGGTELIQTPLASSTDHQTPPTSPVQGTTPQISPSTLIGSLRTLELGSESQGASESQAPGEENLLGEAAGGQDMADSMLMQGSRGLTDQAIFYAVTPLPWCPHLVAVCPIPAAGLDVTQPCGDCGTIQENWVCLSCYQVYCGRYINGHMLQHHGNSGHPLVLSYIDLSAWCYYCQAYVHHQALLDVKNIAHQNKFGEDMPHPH
# Protocol: as §1, §2
# T1 sequence (Q9UQL6 656-1122 limits assumed): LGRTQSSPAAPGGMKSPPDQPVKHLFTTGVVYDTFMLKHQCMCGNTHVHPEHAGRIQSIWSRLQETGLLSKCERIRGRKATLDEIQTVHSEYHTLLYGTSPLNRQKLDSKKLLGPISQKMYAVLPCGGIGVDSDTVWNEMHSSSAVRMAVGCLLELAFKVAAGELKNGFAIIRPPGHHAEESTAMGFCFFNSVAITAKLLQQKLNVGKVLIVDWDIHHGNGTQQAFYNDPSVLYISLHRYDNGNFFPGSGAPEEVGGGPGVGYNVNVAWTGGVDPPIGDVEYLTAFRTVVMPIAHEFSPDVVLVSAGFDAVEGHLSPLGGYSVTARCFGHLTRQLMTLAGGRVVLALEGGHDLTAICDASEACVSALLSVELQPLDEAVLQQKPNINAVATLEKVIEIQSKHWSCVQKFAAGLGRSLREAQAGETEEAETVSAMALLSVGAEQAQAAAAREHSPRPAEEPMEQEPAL
SMILES,EC50 [1] [nM],IC50 [2] [nM],IC50 (HDAC5) [nM],IC50 (HDAC6) [nM]
"Cc1[nH]c2ccccc2c1CCNCc1ccc(/C=C/C(=O)NO)cc1 [LBH589, panobinostat, reference compound]",100 to 200,1 to 10,–,–
"COc1ccc(-c2nc(N3CCOCC3)c3nc(CN(C)c4ncc(C(=O)NO)cn4)n(C)c3n2)cn1 [CLJ-1, 2-(((2-(6-methoxypyridine-3-yl)-9-methyl-6-morpholine-9H-purine-8-yl))methyl(methyl)amino)-N-hydroxyl pyrimidine-5-formamide]",100 to 200,0.1 to 1,1000 to 10000,1 to 100
"CN(Cc1nc2c(N3CCOCC3)nc(-c3cnc(N)nc3)nc2n1C)c1ncc(C(=O)NO)cn1 [CLJ-11, 2-(((2-(2-aminopyrimidine-5-yl)-9-methyl-6-morpholine-9H-purine-8-yl))methyl(methyl)amino)-N-hydroxyl pyrimidine-5-formamide]",100 to 200,1 to 10,100 to 1000,1 to 100
CN(Cc1nc2c(N3CCOCC3)nc(-c3ccc(N)cc3)nc2n1C)c1ncc(C(=O)NO)cn1 [CLJ-44],> 200,1 to 10,100 to 1000,1 to 100
"COc1ccc(-c2nc(N3CCOCC3)c3nc(CN(C)c4ncc(C(=O)NO)cn4)n(C)c3n2)cc1 [CLJ-29, 2-(((2-(4-methoxyphenyl)-9-methyl-6-morpholine-9H-purine-8-yl))methyl(methyl)amino)-N-hydroxyl pyrimidine-5-formamide]",> 200,0.1 to 1,1000 to 10000,1 to 100
